17 compounds from PubChem BioAssay (NCI) can be followed below.

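Briefly, cells in 96-well plates were exposed to five compound concentrations for 48 h, and endpoints were estimated by linear interpolation. GI50 marks 50% less growth. TGI: concentration producing complete growth inhibition.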

Test systems include SNB-19 CNS; COLO 205 colon; NCI-H522 lung; SW-620 colon; HT29 colon; M14 melanoma; RPMI-8226 leukemia; 786-0 renal; U251 CNS; LOX IMVI melanoma.
Common to all, as to test: inhibition of tumour cell growth, NCI panel, 48 h

Regarding `COC(=O)[C@H](Cc1cnc[nH]1)NC(=O)[C@@H](NC(=O)Nc1cc(C(F)(F)F)cc(C(F)(F)F)c1)C(C)C`, the GI50 with SNB-19 CNS was 10.9 µM; in the assay with COLO 205 colon, 15.2 µM; with NCI-H522 lung, 13.1 µM; in the assay with SW-620 colon it was 18 µM; with HT29 colon, 18.1 µM; in the assay with M14 melanoma, 16.8 µM. For the same compound, the GI50 in the assay on RPMI-8226 leukemia was 16.1 µM; with 786-0 renal, 18.9 µM. Further, the TGI worked out at 23.2 µM in the assay on SNB-19 CNS; 29.4 µM with COLO 205 colon; 27 µM in the assay on NCI-H522 lung; 35.5 µM in the assay with SW-620 colon; 33.8 µM in the assay with HT29 colon; 34 µM in the assay on M14 melanoma. Also, the TGI with RPMI-8226 leukemia came out at 38.9 µM; with 786-0 renal it was 38.6 µM.

In the case of `COc1cc(/C=C/C(=O)/C=C/c2ccc(-n3ccnc3C)cc2)ccc1O`, the GI50 in the assay with SNB-19 CNS is 4.62 µM; in the assay with COLO 205 colon, 3.4 µM; in the assay with U251 CNS, 2.31 µM; with NCI-H522 lung it was 5.26 µM; in the assay with SW-620 colon it was 2.23 µM; with HT29 colon, 1.95 µM. For the same compound, the results for the GI50 in the assay on M14 melanoma, with RPMI-8226 leukemia and with 786-0 renal were 2.25 µM, 1.84 µM and 2.11 µM, respectively. In addition, the TGI in the assay on SNB-19 CNS was 86.3 µM; with COLO 205 colon, 12.1 µM; in the assay on U251 CNS it was 6.4 µM; in the assay on NCI-H522 lung, 24.9 µM; in the assay on SW-620 colon, 5.63 µM; with HT29 colon, 3.9 µM. In addition, the TGI with M14 melanoma was found to be 5.94 µM; in the assay with RPMI-8226 leukemia, 6.1 µM; in the assay with 786-0 renal, 5.21 µM.

For the compound `C[C@]12CC[C@H]3[C@@H](CC=C4C[C@@H](N5CCCC5)CC[C@@]43C)[C@@H]1C/C(=C\c1cccc(OCCN3CCOCC3)c1)[C@@H]2O`, the GI50 is 4.41 µM in the assay with SNB-19 CNS; 3.89 µM with COLO 205 colon; 2.95 µM with U251 CNS; 2.61 µM with LOX IMVI melanoma; 8.21 µM with NCI-H522 lung; 2.82 µM in the assay with SW-620 colon. The GI50 with HT29 colon is 0.532 µM; with M14 melanoma it was 1.96 µM; with 786-0 renal, 1.64 µM. Also, the TGI with SNB-19 CNS is > 100 µM; in the assay with COLO 205 colon, 39.3 µM; with U251 CNS, > 100 µM; in the assay with LOX IMVI melanoma it was 7.43 µM; with NCI-H522 lung, 29.7 µM; with SW-620 colon it was 18.8 µM. Moreover, the TGI with HT29 colon was 15.7 µM; in the assay with M14 melanoma it was 4.07 µM; with 786-0 renal, 3.62 µM.

For `COC(=O)N/N=C(\C)c1c(O)cc(C)oc1=O`, the TGI is > 100 µM in the assay with SNB-19 CNS; > 100 µM in the assay with U251 CNS; 44.5 µM in the assay on LOX IMVI melanoma; > 100 µM in the assay on SW-620 colon; > 100 µM in the assay on HT29 colon; > 100 µM with M14 melanoma. In addition, in the assay with 786-0 renal, the TGI was > 100 µM.

On to `COc1ccc2c(c1)c(-c1nc(-c3c[nH]c4ccncc34)cs1)cn2C`, for which the GI50 in the assay on SNB-19 CNS is 1.85 µM; with U251 CNS it was 1.87 µM; in the assay with NCI-H522 lung it was 1.65 µM; in the assay with SW-620 colon, 1.75 µM; in the assay on HT29 colon, 1.2 µM; with M14 melanoma it was 1.78 µM. The GI50 in the assay on RPMI-8226 leukemia was 1.83 µM; in the assay on 786-0 renal it was 1.7 µM. Besides, the TGI in the assay with SNB-19 CNS turned out to be 3.36 µM; in the assay on U251 CNS it was 3.3 µM; in the assay with NCI-H522 lung, 3.25 µM; with SW-620 colon it was 3.27 µM; with HT29 colon, 2.62 µM; in the assay on M14 melanoma it was 3.26 µM. Further, the figures for the TGI in the assay with RPMI-8226 leukemia and in the assay with 786-0 renal were 3.83 µM and 3.24 µM, respectively.

As for `N/C(=N\N=C\c1ccc(C(F)(F)F)cc1)NO`, the TGI was 38.7 µM with COLO 205 colon; 87.3 µM with U251 CNS; 50.4 µM in the assay with NCI-H522 lung; > 100 µM with SW-620 colon; > 100 µM with HT29 colon; 29.2 µM in the assay with M14 melanoma. Further, the TGI with 786-0 renal is 37.7 µM.

Consider `CCC(C)Nc1ccc(N)cc1` (stereo unspecified), for which the GI50 with SNB-19 CNS is 8.42 µM; with COLO 205 colon it was 1.72 µM; with U251 CNS, 3.64 µM; in the assay with LOX IMVI melanoma, 3.43 µM; with NCI-H522 lung it was 3.07 µM; with SW-620 colon, 4.16 µM. Moreover, the figures for the GI50 in the assay on HT29 colon, in the assay with M14 melanoma and in the assay on 786-0 renal were 3.16 µM, 4.72 µM and 3.89 µM, respectively. The TGI with SNB-19 CNS came out at 52.5 µM; in the assay with COLO 205 colon it was 3.19 µM; in the assay with U251 CNS, 13 µM; in the assay with LOX IMVI melanoma it was 11 µM; in the assay on NCI-H522 lung, 9.07 µM; in the assay with SW-620 colon, 15.5 µM. Also, the TGI in the assay on HT29 colon stood at 10.7 µM; with M14 melanoma it was 15.5 µM; in the assay on 786-0 renal, 14.3 µM.

Take `CCOC(=O)C(=O)CC1=Nc2ccccc2SC(c2cccc(C)c2)C1` (stereo unspecified): the TGI in the assay with SNB-19 CNS turned out to be 34.6 µM; in the assay with U251 CNS it was 31 µM; with NCI-H522 lung, 32.8 µM; with SW-620 colon it was 43.4 µM; with HT29 colon it was 29.8 µM; in the assay on M14 melanoma, 35.3 µM. Further, the TGI in the assay on RPMI-8226 leukemia is 67.3 µM; in the assay on 786-0 renal, 32.4 µM.

As to `CC1/C(=N\O)CC(c2ccccc2)N(C)C1c1ccccc1` (stereo unspecified), the TGI in the assay on SNB-19 CNS, in the assay with COLO 205 colon, in the assay on U251 CNS, in the assay with LOX IMVI melanoma, with NCI-H522 lung and in the assay on SW-620 colon was > 100 µM each time. Also, the TGI with HT29 colon, in the assay with M14 melanoma and in the assay with 786-0 renal was > 100 µM each time.

For `CC1=C(C(=O)Nc2ccccc2)C(c2cccc3ccccc23)C(C(=O)Nc2ccccc2)=C(C)N1`, the TGI is 72.5 µM in the assay with SNB-19 CNS; 26.6 µM with COLO 205 colon; 31.3 µM with U251 CNS; 30.4 µM in the assay on LOX IMVI melanoma; 35.6 µM with NCI-H522 lung; 55.1 µM with SW-620 colon. Further, the TGI with HT29 colon is 36.2 µM; in the assay with M14 melanoma, 32.5 µM; in the assay on 786-0 renal, 52.5 µM.

As to `Nc1nc([Se])c2ncn(C3OC(CO)C(O)C3O)c2n1` (stereo unspecified), the GI50 with SNB-19 CNS is > 100 µM; with COLO 205 colon, 19.3 µM; in the assay with U251 CNS, 73.3 µM; in the assay with LOX IMVI melanoma it was 2.85 µM; in the assay on NCI-H522 lung, 42.5 µM; in the assay on SW-620 colon, 28.8 µM. Further, the GI50 with HT29 colon is 4.29 µM; with M14 melanoma, 4.28 µM; in the assay with 786-0 renal it was 17.2 µM. In addition, the TGI was > 100 µM in the assay on SNB-19 CNS; 72.5 µM in the assay on COLO 205 colon; > 100 µM in the assay with U251 CNS; > 100 µM in the assay on LOX IMVI melanoma; > 100 µM in the assay with NCI-H522 lung; > 100 µM with SW-620 colon. The TGI in the assay on HT29 colon was 82.9 µM; in the assay on M14 melanoma, > 100 µM; with 786-0 renal, > 100 µM.

Take `Cc1cccc(C)c1NC(=O)C1=NC(=S)NC(c2ccccc2)C1c1nc2ccccc2s1` (stereo unspecified): the TGI with SNB-19 CNS, in the assay with COLO 205 colon, with U251 CNS, with NCI-H522 lung, in the assay on SW-620 colon and in the assay with HT29 colon was > 100 µM throughout. The TGI with M14 melanoma and in the assay on 786-0 renal was > 100 µM each time.

As for `CCCCCCCCCCCCCC[N+](C)(C)CCCCCCCCCCCCCC`, the GI50 in the assay with SNB-19 CNS is 2.38 µM; in the assay with NCI-H522 lung it was 1.93 µM; in the assay on RPMI-8226 leukemia, 1.77 µM; with 786-0 renal, 2.02 µM. Also, the TGI came to 10 µM in the assay on SNB-19 CNS, 5.17 µM in the assay with NCI-H522 lung, 4.44 µM with RPMI-8226 leukemia and 4.92 µM with 786-0 renal.

For `CNC(=O)c1c(NC(=O)c2ccc(C(C)(C)C)cc2)sc2c(CN(C)C)c(O)ccc12`, the GI50 in the assay on COLO 205 colon was 2.1 µM; in the assay on LOX IMVI melanoma, 1.13 µM; in the assay on SW-620 colon it was 1.74 µM; in the assay on M14 melanoma it was 1.74 µM; with 786-0 renal it was 1.74 µM. Besides, the TGI in the assay on COLO 205 colon was determined as 4.3 µM; in the assay with LOX IMVI melanoma it was 2.38 µM; in the assay with SW-620 colon, 3.38 µM; in the assay on M14 melanoma, 3.54 µM; in the assay on 786-0 renal it was 3.3 µM.

Regarding `Nc1ccc(C2=CC(c3ccc(Cl)cc3)N3C=CSC3=N2)cc1` (stereo unspecified), the GI50 in the assay with SNB-19 CNS was 11.8 µM; with COLO 205 colon, 8.59 µM; in the assay with U251 CNS, 2.94 µM; in the assay on LOX IMVI melanoma it was 2.34 µM; in the assay with NCI-H522 lung, 3.51 µM; with SW-620 colon, 2.07 µM. Besides, the values for the GI50 in the assay on HT29 colon, in the assay with M14 melanoma and in the assay on 786-0 renal were 2.79 µM, 2.86 µM and 6.74 µM, respectively. The TGI in the assay with SNB-19 CNS came to 29 µM; in the assay with COLO 205 colon, 20.6 µM; in the assay on U251 CNS, 12.1 µM; with LOX IMVI melanoma, 5.65 µM; in the assay with NCI-H522 lung, 11.3 µM; with SW-620 colon it was 4.51 µM. The TGI in the assay with HT29 colon was 6.98 µM; in the assay on M14 melanoma, 7.43 µM; in the assay on 786-0 renal it was 25.7 µM.

Turning to `CC1=C(c2ccccc2)C(O)(c2ccccc2)C(C)C1=O` (stereo unspecified), the GI50 with SNB-19 CNS was 35.5 µM; with COLO 205 colon, 25.1 µM; in the assay with U251 CNS, 22.1 µM; with LOX IMVI melanoma, 15.3 µM; in the assay on SW-620 colon, 6.18 µM; with HT29 colon, 10.5 µM. Also, the GI50 with M14 melanoma is 4.72 µM; with 786-0 renal it was 18.9 µM. Besides, the TGI in the assay with SNB-19 CNS, with COLO 205 colon, in the assay on U251 CNS, with LOX IMVI melanoma, with SW-620 colon and in the assay on HT29 colon was > 100 µM in each case. The TGI was 33.7 µM in the assay on M14 melanoma and > 100 µM in the assay on 786-0 renal.

Turning to `O=C1C=CC=C/C1=C1/SC(c2ccccc2)=C(O)N1c1ccccc1`, the TGI in the assay on SNB-19 CNS, in the assay on COLO 205 colon, with U251 CNS, with NCI-H522 lung, in the assay with SW-620 colon and with HT29 colon was > 100 µM each time. The TGI in the assay on 786-0 renal was > 100 µM.
